{"source": "patent US5852011A", "about": "“Benzimidazole derivatives” (Mitsui Chemicals, Inc., priority 1994, dated 1998)", "key": {"P388 leukemia cells": {"test_system": "P388 leukemia cells", "experiment": "In vivo antitumor activity, P388 leukemia intraperitoneally transplanted to female CDF1 mice (Test 3)", "design": "species or system mouse; ILS: unit not given here", "conditions": "intraperitoneal, one, five and nine days after transplantation; for ILS: 1 mg/kg; for Survived After 8 weeks/Tested Animals: concentration 3 (in parentheses)", "description": "In vivo antitumor activities of these compounds were also studied. P388 leukemia cells (10^6 cells/mouse) were intraperitoneally transplanted to female CDF1 mice. One, five and nine days later, each compound was intraperitoneally administered (at 1, 3 or 10 mg/kg) to the mice. As a blank test, 5% glucose was intraperitoneally administered at 10 ml/kg to mice. Based on the group of the mice in the blank test as a control group, the effects of the individual drugs are shown in terms of ILS. The term \"ILS\" is represented by the following formula: [formula]\nWhen test animals survived 8 weeks after the administration, the number of those survived was recorded without calculation of ILS."}, "mouse B16 melanoma cells": {"test_system": "mouse B16 melanoma cells", "experiment": "In vitro inhibition of proliferation of tumored cells, mouse B16 melanoma (Test 2)", "format": "cell-based", "conditions": "3 days in 5% CO2 at 37° C., 96-well plate", "description": "A description will next be made of antitumor activities of these compounds. Their antitumor activities were determined by measuring their in vitro inhibition of proliferation of tumored cells. Namely, mouse B16 melanoma cells were spread over a 96-well culture plate. One day later, each drug was applied. The melanoma cells were then incubated for 3 days in 5% CO2 at 37° C. Following the method reported in Cancer Res., 48, 589-601(1988), the concentration of the drug required to induce 50% inhibition on the proliferation was determined. As a comparative example, the results obtained from the application of distamycin are also shown."}}, "note": "Where a name gives a salt, the structure may show the parent alone.", "data": [{"smiles": "Cn1cc(NC(=O)Cc2ccc(N(CCCl)CCCl)cc2)cc1-c1nc2cc(C(=O)NCCC(=N)N)ccc2[nH]1", "note": "[Compound 2, 1H-2-[4-[2-[4-[N,N-Bis(2-chloroethyl)amino]phenyl]acetylamino]-1-methylpyrrol-2-yl]benzimidazole-5-[N-(2-amidinoethyl)]carboxamide hydrochloride]", "values": [{"measurement": "ILS", "setting": "P388 leukemia cells", "value": 59}, {"measurement": "Survived After 8 weeks/Tested Animals", "setting": "P388 leukemia cells", "value": "2/5"}, {"measurement": "50% Inhibition", "setting": "mouse B16 melanoma cells", "value": 0.25, "unit": "µg/mL"}]}, {"smiles": "COc1cc(C(=O)Nc2cc(-c3nc4cc(C(=O)NCCC(=N)N)ccc4[nH]3)n(C)c2)ccc1N(CCCl)CCCl", "note": "[Compound 6, 1H-2-[4-[3-Methoxy-4-[N,N-bis(2-chloroethyl)amino]benzoylamino]-1-methylpyrrol-2-yl]benzimidazole-5-[N-(2-amidinoethyl)]carboxamide hydrochloride]", "values": [{"measurement": "ILS", "setting": "P388 leukemia cells", "value": 94}, {"measurement": "50% Inhibition", "setting": "mouse B16 melanoma cells", "value": 0.02, "unit": "µg/mL"}]}, {"smiles": "Cn1cc(NC(=O)COc2ccc(N(CCCl)CCCl)cc2)cc1-c1nc2cc(C(=O)NCCC(=N)N)ccc2[nH]1", "note": "[Compound 13, 1H-2-[4-[4-[N,N-Bis(2-chloroethyl)amino]phenoxyacetylamino]-1-methylpyrrol-2-yl]benzimidazole-5-[N-(2-amidinoethyl)]carboxamide hydrochloride]", "values": [{"measurement": "ILS", "setting": "P388 leukemia cells", "value": 123}, {"measurement": "Survived After 8 weeks/Tested Animals", "setting": "P388 leukemia cells", "value": "3/5"}, {"measurement": "50% Inhibition", "setting": "mouse B16 melanoma cells", "value": 0.01, "unit": "µg/mL"}]}, {"smiles": "Cn1cc(NC(=O)N2CCOCC2)cc1-c1nc2cc(C(=O)Nc3ccc(N(CCCl)CCCl)cc3)ccc2[nH]1", "note": "[Compound 1536, 1H-2-[1-Methyl-4-(4-morpholinecarbonyl)aminopyrrol-2-yl]benzimidazole-5-[N-[4-[N,N-bis(2-chloroethyl)amino]phenyl]]carboxamide]", "values": [{"measurement": "50% Inhibition", "setting": "mouse B16 melanoma cells", "value": 0.53, "unit": "µg/mL"}]}, {"smiles": "Cn1cc(NC(=O)CN2CCN(Cc3ccccc3)CC2)cc1-c1nc2cc(C(=O)Nc3ccc(N(CCCl)CCCl)cc3)ccc2[nH]1", "note": "[Compound 1585, 1H-2-[1-Methyl-4-[(4-benzylpiperazinyl)acetylamino]pyrrol-2-yl]benzimidazole-5-[N-[4-[N,N-bis(2-chloroethyl)amino]phenyl]]carboxamide]", "values": [{"measurement": "50% Inhibition", "setting": "mouse B16 melanoma cells", "value": 0.1, "unit": "µg/mL"}]}, {"smiles": "Cn1cc(NC(=O)CCn2ccnc2)cc1-c1nc2cc(C(=O)Nc3ccc(N(CCCl)CCCl)cc3)ccc2[nH]1", "note": "[Compound 1589, 1H-2-[1-Methyl-4-[[3-(imidazol-1-yl)propionyl]amino]pyrrol-2-yl]benzimidazole-5-[N-[4-[N,N-bis(2-chloroethyl)]amino]phenyl]carboxamide]", "values": [{"measurement": "50% Inhibition", "setting": "mouse B16 melanoma cells", "value": 0.41, "unit": "µg/mL"}]}, {"smiles": "Cn1cc(NC(=O)c2ncc[nH]2)cc1-c1nc2cc(C(=O)Nc3ccc(N(CCCl)CCCl)cc3)ccc2[nH]1", "note": "[Compound 1590, 1H-2-[1-Methyl-4-[2-imidazolylcarboxamido)-pyrrol-2-yl]benzimidazole-5-[N-[4-[N,N-bis(2-chloroethyl)amino]phenyl]]carboxamide]", "values": [{"measurement": "50% Inhibition", "setting": "mouse B16 melanoma cells", "value": 0.53, "unit": "µg/mL"}]}, {"smiles": "Cn1cc(NC(=O)CNC(=N)N)cc1-c1nc2cc(C(=O)NCCCC(=O)Nc3ccc(N(CCCl)CCCl)cc3)ccc2[nH]1", "note": "[Compound 1592, 1H-2-[4-(Guanidinoacetyl)amino-1-methylpyrrol-2-yl]benzimidazole-5-[N-[3-[N-[4-[N,N-bis(2-chloroethyl)amino]phenyl]carboxamido]propyl]]carboxamide hydrochloride]", "values": [{"measurement": "50% Inhibition", "setting": "mouse B16 melanoma cells", "value": 0.61, "unit": "µg/mL"}]}, {"smiles": "N=C(N)NCC(=O)Nc1cc(-c2nc3cc(C(=O)Nc4ccc(N(CCCl)CCCl)cc4)ccc3[nH]2)cs1", "note": "[Compound 1617, 1H-2-[5-(Guanidinoacetyl)aminothiophen-3-yl]benzimidazole-5-[N-[4-[N,N-bis(2-chloroethyl)amino]phenyl]]carboxamide dihydrochloride]", "values": [{"measurement": "50% Inhibition", "setting": "mouse B16 melanoma cells", "value": 0.12, "unit": "µg/mL"}]}, {"smiles": "CCN(CCCl)c1ccc(NC(=O)c2ccc3[nH]c(-c4cc(NC(=O)c5ccc(N(CC)CCCl)cc5)cn4C)nc3c2)cc1.Cl", "note": "[Compound 2089, 1H-2-[1-Methyl-4-[4-[N-ethyl,N-(2-chloroethyl)amino]benzoylamino]pyrrol-2-yl]benzimidazole-5-[N-[4-[N-ethyl,N-(2-chloroethyl)amino]phenyl]]carboxamidehydrochloride]", "values": [{"measurement": "50% Inhibition", "setting": "mouse B16 melanoma cells", "value": 0.0057, "unit": "µg/mL"}]}]}
